Assay results from US20220378801A1, “NOVEL COMPOUNDS” (AC Immune SA, priority 2019, published 2022).

Experiments:
Assay type in all cases: cell-based
[1] = target: T1, NLRP3 inflammasome (Homo sapiens, UniProt Q96P20); experiment: NLRP3 inflammasome activation assay, IL-1 beta release, human monocyte-like cells, Nigericin stimulation; parameters: endogenous in cells; settings: PMA-differentiated, LPS-primed human monocyte-like cells; Nigericin 3.75 μM 3 h; IL-1β by AlphaLISA
Description: (§1) The following assays can be used to determine the inhibitory activity of test compounds on the NLRP3 inflammasome using common stimuli nigericin (Invivogen) or monosodium urate crystals (MSU)(Invivogen).
(§2) Human monocyte-like cells are cultured in RPM11640 Glutamax medium supplemented with 10% heat inactivated FCS and 50 U/ml penicillin-streptomycin (Life Technologies). HMDM (Human Monocyte Derived Macrophage) are isolated from human blood with leucosep tubes and classical monocyte isolation kit from Miltenyi based on negative selection.
(§3) NLRP3 inflammasome activation assays Human monocyte-like cells are seeded at 75000 per well in a 96 well plate and differentiated overnight into macrophages with 10 ng/ml PMA (Phorbol Myristate Acetate). The following day, medium containing 10 ng/ml LPS (lipopolysaccharide) is added. After 3 h of LPS priming, concentrations of test compound in the range from 100 μM to 6 nM are added 30 min prior to NLRP3 inflammasome stimulation with Nigericin 3.75 μM or MSU 150 μg/ml for 3 h.
(§4) For IL-1β quantification, supernatants are analyzed using AlphaLISA kits according to the manufacturer's instructions (Perkin Elmer AlphaLISA AL220F).
(§5) IC50 (concentration corresponding to 50% inhibition) were determined using GraphPad Prism 8.

[2] = target: T1, NLRP3 inflammasome; experiment: NLRP3 inflammasome activation assay, IL-1 beta release, human monocyte-like cells, MSU stimulation; parameters: endogenous in cells; settings: PMA-differentiated, LPS-primed human monocyte-like cells; MSU 150 μg/ml 3 h; IL-1β by AlphaLISA
Description: as §1, §2, §3, §4, §5

[3] = target: T1, NLRP3 inflammasome; experiment: NLRP3 inflammasome activation assay, IL-1 beta release, HMDM cells, MSU stimulation; settings: LPS-primed primary human monocyte-derived macrophages; MSU 150 μg/ml 3 h; IL-1β by AlphaLISA
Description: as §1, §2
(§6) Primary human monocyte-derived macrophages (HMDM) are seeded at 30000 per well in a 96 well plate and differentiated into macrophages with 10 ng/ml Human M-CSF (Macrophage Colony Stimulating Factor). At DIV 8 (Day in vitro) medium containing 10 ng/ml LPS is added. After 3 h of LPS priming, concentrations of test compound in the range from […] are added 30 min prior to NLRP3 inflammasome stimulation with Nigericin 2.5 μM or MSU 150 μg/ml for 3 h.
as §4, §5

[4] = target: T1, NLRP3 inflammasome; experiment: NLRP3 inflammasome activation assay, IL-1 beta release, HMDM cells, Nigericin stimulation; settings: LPS-primed primary human monocyte-derived macrophages; Nigericin 2.5 μM 3 h; IL-1β by AlphaLISA
Description: as §1, §2, §6, §4, §5

T1 sequence (Q96P20 whole entry): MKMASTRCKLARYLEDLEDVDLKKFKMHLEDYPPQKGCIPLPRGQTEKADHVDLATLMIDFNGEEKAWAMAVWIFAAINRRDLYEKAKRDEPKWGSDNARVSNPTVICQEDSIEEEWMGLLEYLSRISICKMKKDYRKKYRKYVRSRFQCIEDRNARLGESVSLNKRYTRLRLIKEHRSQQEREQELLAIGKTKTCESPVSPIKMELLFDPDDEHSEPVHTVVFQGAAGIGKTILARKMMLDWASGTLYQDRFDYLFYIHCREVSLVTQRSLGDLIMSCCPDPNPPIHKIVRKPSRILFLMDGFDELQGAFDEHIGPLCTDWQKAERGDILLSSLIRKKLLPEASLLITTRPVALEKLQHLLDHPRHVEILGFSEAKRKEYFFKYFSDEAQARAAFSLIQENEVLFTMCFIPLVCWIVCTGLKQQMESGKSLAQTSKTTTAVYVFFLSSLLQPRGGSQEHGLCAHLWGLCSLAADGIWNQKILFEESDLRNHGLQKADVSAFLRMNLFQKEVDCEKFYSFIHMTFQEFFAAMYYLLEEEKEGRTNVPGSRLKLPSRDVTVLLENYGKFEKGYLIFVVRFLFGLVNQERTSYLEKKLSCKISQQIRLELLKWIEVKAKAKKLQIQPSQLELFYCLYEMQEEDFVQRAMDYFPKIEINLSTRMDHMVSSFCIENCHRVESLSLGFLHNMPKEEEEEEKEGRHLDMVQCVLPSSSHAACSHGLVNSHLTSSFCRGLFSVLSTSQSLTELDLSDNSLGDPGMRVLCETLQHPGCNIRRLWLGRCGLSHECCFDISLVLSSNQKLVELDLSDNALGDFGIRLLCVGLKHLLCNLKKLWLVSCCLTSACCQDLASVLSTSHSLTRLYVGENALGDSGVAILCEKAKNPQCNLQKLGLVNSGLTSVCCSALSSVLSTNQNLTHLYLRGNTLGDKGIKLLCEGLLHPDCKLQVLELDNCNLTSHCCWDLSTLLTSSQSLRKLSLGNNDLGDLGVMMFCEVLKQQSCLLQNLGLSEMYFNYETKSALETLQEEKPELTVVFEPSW

Compound | IC50 [1] [µM] | IC50 [2] [µM] | IC50 [3] [µM] | IC50 [4] [µM]
COc1cc(-c2ccc3c(c2NC(=O)NS2(=O)=NC(=O)c4sccc42)CCC3)ccn1 (single isomer, unassigned) [Example 52] | 1 to 10 | 1 to 10 | – | –
O=C(Nc1c2c(c(F)c3c1CCC3)CCC2)NS1(=O)=NC(=O)c2sccc21 (single isomer, unassigned) [Example 54] | 1 to 10 | < 1 | 1 to 10 | –
O=C(Nc1c(Br)ccc2c1CCO2)NS1(=O)=NC(=O)c2sccc21 (single isomer, unassigned) [Example 56] | 10 to 30 | 1 to 10 | – | –
O=C(Nc1c2c(cc3c1CCC3)CCC2)NS1(=O)=NC(=O)c2cc(Br)ccc21 (single isomer, unassigned) [Example 58] | 1 to 10 | < 1 | – | –
O=C(Nc1c2c(cc3c1CCC3)CCC2)NS1(=O)=NC(=O)c2cc(Br)ccc21 (single isomer, unassigned) [Example 59] | 1 to 10 | 1 to 10 | – | –
O=C(Nc1c2c(cc3c1CCC3)CCC2)NS1(=O)=NC(=O)c2c(F)cccc21 (single isomer, unassigned) [Example 61] | 1 to 10 | < 1 | – | –
O=C(Nc1c2c(cc3c1CCC3)CCC2)NS1(=O)=NC(=O)c2ccc(F)cc21 (single isomer, unassigned) [Example 63] | 1 to 10 | < 1 | 1 to 10 | –
O=C(N=S1(=O)NC(=O)c2cccnc21)Nc1c2c(cc3c1CCC3)CCC2 (centres unmarked) [Example 2] | 1 to 10 | < 1 | 1 to 10 | –
O=C(Nc1cc2c(c3c1CCC3)CCC2)NS1(=O)=NC(=O)c2ccccc21 (centres unmarked) [Example 6] | 1 to 10 | 1 to 10 | 1 to 10 | –
O=C(Nc1c2c(cc3c1CCC3)CCC2)NS1(=O)=NC(=O)c2ccncc21 (centres unmarked) [Example 7] | 1 to 10 | < 1 | 1 to 10 | –
O=C(Nc1c2c(cc3c1CCC3)CCC2)NS1(=O)=NC(=O)c2ncccc21 (centres unmarked) [Example 8] | 1 to 10 | 1 to 10 | – | –
COC(=O)c1ccc2c(c1)S(=O)(=NC(=O)Nc1c3c(cc4c1CCC4)CCC3)NC2=O (centres unmarked) [Example 9] | 1 to 10 | 1 to 10 | – | –
N#Cc1ccc2c(c1)C(=O)N=S2(=O)NC(=O)Nc1c2c(cc3c1CCC3)CCC2 (centres unmarked) [Example 10] | 1 to 10 | < 1 | – | –
O=C(Nc1c2c(cc3c1CCC3)CCC2)NS1(=O)=NC(=O)c2cc(Cl)ccc21 (centres unmarked) [Example 12] | 1 to 10 | 1 to 10 | 1 to 10 | –
O=C(Nc1c2c(cc3c1CCC3)CCC2)NS1(=O)=NC(=O)c2ccc(Cl)cc21 (centres unmarked) [Example 13] | 1 to 10 | < 1 | – | –
COc1ccc2c(c1)C(=O)N=S2(=O)NC(=O)Nc1c2c(cc3c1CCC3)CCC2 (centres unmarked) [Example 22] | 1 to 10 | < 1 | – | –
O=C(Nc1c2c(cc3c1CCC3)CCC2)NS1(=O)=NC(=O)c2cc(Br)ccc21 (centres unmarked) [Example 23] | 1 to 10 | < 1 | – | –
O=C(N=S1(=O)NC(=O)c2ccc(Br)cc21)Nc1c2c(cc3c1CCC3)CCC2 (centres unmarked) [Example 24] | 1 to 10 | < 1 | 1 to 10 | –
O=C(Nc1c2c(cc3c1CCC3)CCC2)NS1(=O)=NC(=O)c2c(F)cccc21 (centres unmarked) [Example 25] | 1 to 10 | < 1 | < 1 | –
O=C(Nc1c2c(cc3c1CCC3)CCC2)NS1(=O)=NC(=O)c2cc(F)ccc21 (centres unmarked) [Example 26] | 1 to 10 | < 1 | < 1 | –
O=C(N=S1(=O)NC(=O)c2ccc(C(F)(F)F)cc21)Nc1c2c(cc3c1CCC3)CCC2 (centres unmarked) [Example 27] | 1 to 10 | < 1 | – | –
O=C(Nc1c2c(cc3c1CCC3)CCC2)NS1(=O)=NC(=O)c2ccc(F)cc21 (centres unmarked) [Example 28] | 1 to 10 | < 1 | – | –

Second part, the compound after the results:

IC50 [1] [µM] | IC50 [2] [µM] | IC50 [3] [µM] | IC50 [4] [µM] | Compound
1 to 10 | < 1 | – | – | O=C(N=S1(=O)NC(=O)c2cccnc21)Nc1c2c(cc3c1CCC3)CCC2 (single isomer, unassigned) [Example 32]
1 to 10 | < 1 | – | – | O=C(Nc1c2c(cc3c1CCC3)CCC2)NS1(=O)=NC(=O)c2ccccc2C1 (single isomer, unassigned) [Example 33]
1 to 10 | < 1 | 1 to 10 | – | O=C(Nc1c2c(cc3c1CCC3)CCC2)NS1(=O)=NC(=O)c2sccc21 (single isomer, unassigned) [Example 35]
1 to 10 | < 1 | – | – | O=C(Nc1c2c(cc3c1CCC3)CCC2)NS1(=O)=NC(=O)c2ccncc21 (single isomer, unassigned) [Example 38]
1 to 10 | 1 to 10 | – | – | O=C(Nc1c2c(cc3c1CCC3)CCC2)NS1(=O)=NC(=O)c2ncccc21 (single isomer, unassigned) [Example 39]
1 to 10 | < 1 | 1 to 10 | – | CC(C)(O)c1ccc2c(c1)S(=O)(=NC(=O)Nc1c3c(cc4c1CCC4)CCC3)NC2=O (single isomer, unassigned) [Example 40]
1 to 10 | < 1 | – | – | O=C(Nc1c2c(cc3c1CCC3)CCC2)NS1(=O)=NC(=O)c2c(Cl)cccc21 (single isomer, unassigned) [Example 43]
1 to 10 | < 1 | – | – | O=C(Nc1c2c(cc3c1CCC3)CCC2)NS1(=O)=NC(=O)c2cc(Cl)ccc21 (single isomer, unassigned) [Example 44]
1 to 10 | < 1 | – | – | O=C(Nc1c2c(cc3c1CCC3)CCC2)NS1(=O)=NC(=O)c2ccc(Cl)cc21 (single isomer, unassigned) [Example 45]
1 to 10 | < 1 | – | – | Cc1cccc2c1C(=O)N=S2(=O)NC(=O)Nc1c2c(cc3c1CCC3)CCC2 (single isomer, unassigned) [Example 46]
1 to 10 | < 1 | – | – | Cc1cccc2c1C(=O)N=S2(=O)NC(=O)Nc1c2c(cc3c1CCC3)CCC2 (single isomer, unassigned) [Example 47]
1 to 10 | < 1 | – | – | CC(C)c1ccc2c(c1NC(=O)NS1(=O)=NC(=O)c3sccc31)CCO2 (single isomer, unassigned) [Example 49]
1 to 10 | 1 to 10 | – | – | COc1cc(-c2cc(F)cc(C(C)C)c2NC(=O)NS2(=O)=NC(=O)c3sccc32)ccn1 (single isomer, unassigned) [Example 50]
< 1 | < 1 | – | – | COc1cc(-c2cc(F)cc(C(C)C)c2NC(=O)NS2(=O)=NC(=O)c3sccc32)ccn1 (single isomer, unassigned) [Example 51]
< 1 | < 1 | – | – | COc1cc(-c2ccc3c(c2NC(=O)NS2(=O)=NC(=O)c4sccc42)CCC3)ccn1 (single isomer, unassigned) [Example 53]
< 1 | < 1 | – | 1 to 10 | O=C(Nc1c2c(cc3c1CCC3)CCC2)NS1(=O)=NC(=O)c2nc(Cl)ccc21 (single isomer, unassigned) [Example 64]
< 1 | < 1 | – | – | COc1ccc2c(c1)S(=O)(NC(=O)Nc1c3c(cc4c1CCC4)CCC3)=NC2=O (centres unmarked) [Example 15]
< 1 | < 1 | – | – | COc1cc(-c2cc(F)cc(C(C)C)c2NC(=O)NS2(=O)=NC(=O)c3sccc32)ccn1 (centres unmarked) [Example 17]
